Assay results as given in patent US20260167656A1, “PHOSPHORAMIDATE COMPOUNDS AND USES THEREOF” (ALLORION THERAPEUTICS INC, priority 2022, published 2026).

What was measured:
[1] = test system: non-small cell lung cancer cell line H460; assay: H460 proliferation assay in the presence of 3 uM ASP9521 (AKR1C3 specific inhibitor); type: cell-based, human; details: H460 cells, CellTiter-Glo, 72 hours, in the presence of 3 uM ASP9521 added 4 hours prior to compounds; read-out: CTG H460: Avg IC50 (nM) [Assay Condition: ASP9521]
Procedure, shortened: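 H460 cells pre-incubated 24 h, then exposed to compounds for 72 h at 37 °C, 5% CO2. Viability read by CellTiter-Glo. ASP9521 (3 uM, AKR1C3 inhibitor) added 4 h before compounds.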

[2] = test system: non-small cell lung cancer cell line H460; assay: In vitro human cancer cell line cytotoxicity (proliferation) assay in H460, CellTiter-Glo, 72 hours; type: cell-based; details: DMSO condition (no AKR1C3 inhibitor), read-out: CTG H460: Avg IC50 (nM) [Assay Condition: DMSO]
Procedure, shortened: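 H460 cells were seeded at 3×10^3 per well and grown 24 h at 37 °C, 5% CO2 before compound addition from 10 mM DMSO stocks. After 72 h further incubation, viability was measured by CellTiter-Glo, and IC50 values in nM were derived from the proliferation data.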

[3] = Homo sapiens, NCI-H460, H460 cells
[4] = Homo sapiens, NCI-H460, 72 h, H460 cells

SMILES	IC50 [1] [nM]	IC50 [2, 3] [nM]	IC50 ([2]; H460 cells) [nM]	IC50 [2, 4] [nM]
O=[N+]([O-])c1ccc2c(c1Oc1ccc(F)c(-c3ccc(F)cc3)c1)CC[C@H]2OP(=O)(N1CC1)N1CC1 [Example 306]	1990	< 10	–	–
O=[N+]([O-])c1ccc2c(c1Oc1ccc(F)c(-c3ccc(F)cc3)c1)CC[C@@H]2OP(=O)(N1CC1)N1CC1 [Example 307]	2360	< 10	–	–
O=[N+]([O-])c1ccc2c(c1Oc1cccc(C(F)(F)F)c1)CCC2OP(=O)(N1CC1)N1CC1 (centres unmarked) [Example 308]	357	–	< 10	–
O=[N+]([O-])c1ccc2c(c1Oc1cccc(-c3cccnc3)c1)CC[C@H]2OP(=O)(N1CC1)N1CC1 [Example 309]	3070	–	–	10 to 50
O=[N+]([O-])c1ccc2c(c1Oc1cccc(-c3cccnc3)c1)CC[C@@H]2OP(=O)(N1CC1)N1CC1 [Example 310]	2010	–	–	< 10
O=[N+]([O-])c1ccc2c(c1Oc1cncc(-c3ccccc3)c1)CCC2OP(=O)(N1CC1)N1CC1 (centres unmarked) [Example 311]	485	–	–	< 10
O=[N+]([O-])c1ccc2c(c1Oc1ccc(F)c(-c3ccccc3)c1)CC[C@H]2OP(=O)(N1CC1)N1CC1 [Example 313]	1260	–	–	< 10
O=[N+]([O-])c1ccc2c(c1Oc1ccc(F)c(-c3ccccc3)c1)CC[C@@H]2OP(=O)(N1CC1)N1CC1 [Example 314]	1590	–	–	< 10
O=[N+]([O-])c1ccc2c(c1Oc1cccc(C3CC3)c1)CCC2OP(=O)(N1CC1)N1CC1 (centres unmarked) [Example 316]	781	–	< 10	–
O=[N+]([O-])c1ccc2c(c1Oc1cccc(C3CC3)c1)CCC2OP(=O)(N1CC1)N1CC1 (centres unmarked) [Example 317]	1010	–	< 10	–
O=[N+]([O-])c1ccc2c(c1Oc1cncc(C3CC3)c1)CC[C@H]2OP(=O)(N1CC1)N1CC1 [Example 318]	1070	–	–	< 10
O=[N+]([O-])c1ccc2c(c1Oc1cncc(C3CC3)c1)CC[C@@H]2OP(=O)(N1CC1)N1CC1 [Example 319]	521	–	–	< 10
Cc1cccc(-c2cccc(Oc3c([N+](=O)[O-])ccc4c3CCC4OP(=O)(N3CC3)N3CC3)c2)n1 (centres unmarked) [Example 321]	6690	–	10 to 50	–
O=[N+]([O-])c1ccc2c(c1Oc1cccc(-c3ccc(F)cn3)c1)CCC2OP(=O)(N1CC1)N1CC1 (centres unmarked) [Example 322]	1610	–	< 10	–
O=[N+]([O-])c1ccc2c(c1Oc1cccc(-c3ccc(F)cn3)c1)CCC2OP(=O)(N1CC1)N1CC1 (centres unmarked) [Example 323]	2690	–	< 10	–
CC(C)(C)c1cncc(Oc2c([N+](=O)[O-])ccc3c2CCC3OP(=O)(N2CC2)N2CC2)c1 (centres unmarked) [Example 325]	608	–	< 10	–
Cc1noc(-c2cc(Oc3c([N+](=O)[O-])ccc4c3CC[C@@H]4OP(=O)(N3CC3)N3CC3)ccc2F)n1 [Example 326]	1270	–	–	< 10
O=[N+]([O-])c1ccc2c(c1Oc1ccc(F)c(-c3ncccn3)c1)CC[C@@H]2OP(=O)(N1CC1)N1CC1 [Example 327]	1710	–	–	< 10
O=[N+]([O-])c1ccc2c(c1Oc1ccc(F)c(-c3ccc(F)cn3)c1)CCC2OP(=O)(N1CC1)N1CC1 (centres unmarked) [Example 328]	4230	–	< 10	–
O=[N+]([O-])c1ccc2c(c1Oc1ccc(F)c(-c3ncc(F)cn3)c1)CCC2OP(=O)(N1CC1)N1CC1 (centres unmarked) [Example 329]	2440	–	< 10	–
Cn1cc(-c2cc(Oc3c([N+](=O)[O-])ccc4c3CCC4OP(=O)(N3CC3)N3CC3)ccc2F)cn1 (centres unmarked) [Example 330]	2980	–	< 10	–
CC(C)c1cc(Oc2c([N+](=O)[O-])ccc3c2CCC3OP(=O)(N2CC2)N2CC2)ccc1F (centres unmarked) [Example 331]	1050	–	< 10	–
CC(C)c1cc(Oc2c([N+](=O)[O-])ccc3c2CCC3OP(=O)(N2CC2)N2CC2)ccc1F (centres unmarked) [Example 332]	1960	–	< 10	–
O=[N+]([O-])c1ccc2c(c1Oc1ccc(O)c(-c3ccc(F)cn3)c1)CCC2OP(=O)(N1CC1)N1CC1 (centres unmarked) [Example 333]	1310	–	< 10	–
O=[N+]([O-])c1ccc2c(c1Oc1ccc(O)c(-c3ccc(F)cn3)c1)CCC2OP(=O)(N1CC1)N1CC1 (centres unmarked) [Example 334]	824	–	< 10	–
